Structure (SMILES)	melting point
FC(F)C(F)(F)Sc1nc(-c2ccccc2)c(-c2ccccc2)n1COCc1ccccc1	70 to 70.5 °C
Cc1nn(-c2cc(O)c(Cl)cc2Cl)c(C)c1Cl	172 to 174 °C
COC(=O)CCCCC(O)c1ccc(CCc2ccccc2)cc1 (stereo unspecified)	56 to 58 °C
CS(=O)(=O)NCCCn1c(-c2ccc(Br)cc2)csc1=Nc1ccccc1	128 to 134 °C
O=C(SC1CCC1C(=O)N1CCC[C@H]1C(=O)O)c1ccccc1 (stereo partly specified)	123 to 124 °C
O=C(Nc1ccc(CN2CCC(=O)C(=C3SC=CS3)C2=O)cc1)OCc1ccccc1	175 to 176 °C
C=CCOc1ccc(C[C@H](NC(=O)OC(C)(C)C)C(=O)N[C@H](C(=O)N[C@@H](CC=C)C(=O)OC)C(C)C)cc1	106 to 108 °C
CCCCCCc1ccc(OCCCCCCCCCCCCCCCC(=O)NCCO)cc1O	96.4 °C
COc1c(C=NO)ccc2c1OCO2	118 to 119 °C
CC(C)(COS(N)(=O)=O)Oc1ccc(Cl)cc1	76 to 79 °C
NS(=O)(=O)c1ccc(NC(=O)CCl)c(Br)c1	174 to 175 °C
COc1cc([N+](=O)[O-])ccc1N1CCN(CCCNc2c(C)c(=O)n(C)c(=O)n2C)CC1	131 to 133 °C
Cc1cc2cnnc(OCc3ccc(F)cc3)c2n1Cc1ccccc1	127 to 132 °C
Cc1nc(NC(=O)c2ccccc2)sc1C(=O)NCc1ccccc1Cl	191 to 193 °C
Cc1ccccc1-c1c(NC(=O)Nc2ccc(F)cc2F)c(=O)oc2c(F)cc(F)cc12	220 to 221 °C
Nc1cccc(O)c1NC(=O)Nc1cccc(C(F)(F)F)c1	188 to 189 °C
CC(C)(C)OC(=O)C(Nc1ccccc1)c1cccc(F)c1 (racemic)	90 °C
Cc1cc(C)cc(C(=O)N2CCC(Nc3nc4ccccc4n3Cc3cccs3)CC2Cc2ccccc2)c1 (stereo unspecified)	201 °C
CC(C)(C)OC(=O)NCCCc1ccccc1C=CC(=O)O	122 to 126 °C
c1cncc(NCCCOc2cccc(CN3CCCCC3)c2)c1	120 to 122 °C
O=C(O)c1cc(Cn2cc(C3c4ccccc4C=Cc4ccccc43)c(=S)[nH]c2=O)ccc1Cc1ccccc1	135 °C

Structure (SMILES)	melting point
CCCCNc1cc(C(=O)OC)cc(S(N)(=O)=O)c1Oc1ccccc1	146 °C
Cc1cc(C)c2c(c1)nc(N(CCN1CCOCC1)C1CCNCC1)n2Cc1nc(C)ccc1O	226 °C
CCOC(=O)C(C(=O)OCC)c1n[nH]c(C)c1[N+](=O)[O-]	100 to 102 °C
O=C(NC1N=C(c2ccccc2F)c2ccccc2NC1=O)c1ccc[nH]1 (racemic)	271 to 274 °C
CC1CCN(c2cc3nc(C(C)(C)C)sc3cc2N=C=S)CC1	54 to 58 °C
O=C(N[C@H]1C[C@H](C(=O)O)Nc2cc(Cl)cc(Cl)c21)C(c1ccccc1)c1ccccc1 (relative stereo)	238 °C
CS(=O)(=O)Nc1ccc(N2CCC(O)CC2)cc1	126 to 129 °C
COc1ccc(S(=O)(=O)N2CCN(C(=O)c3ccc(Nc4ccnc5cc(C(F)(F)F)ccc45)cc3)CC2)cc1	221 to 223 °C
CCCc1oc(-c2ccccc2)nc1COc1ccc(CO)cc1	79 to 80 °C
C=Cc1ccc(OC(=O)C(Cl)(Cl)Cl)cc1	37 to 39 °C
Nc1ccc(Sc2cc(I)nc(I)c2)cc1	175 to 176 °C
COc1ccc(-c2nnc(C)n2-c2ccccc2)cc1	140 to 141 °C
CCn1cc(C(=O)O)c(=O)c2cc(F)c(N3CCN(C)C(c4cccs4)C3)cc21 (stereo unspecified)	238 to 240 °C
CCCn1cc(Cc2ccc(C(=O)NS(=O)(=O)c3ccccc3C)cc2OC)c2cc(CC3CCN(C)C3=O)ccc21 (stereo unspecified)	103 to 115 °C
CCOC(=O)C(C(=O)Nc1ccc(Br)cc1C)[N+](=O)[O-] (stereo unspecified)	126 to 129 °C
CCOC(=O)C1CCn2c(cc3ccccc32)C1OC(C)=O (stereo unspecified)	98 to 100 °C
Cc1ccc(C(=O)C2=C(O)C(=O)N(c3ccc(C)nn3)C2c2cccc(C(F)(F)F)c2)cc1 (stereo unspecified)	232 °C
COc1cc2c(cc1OC)C(C(CO)CO)=NCC2	129 °C
COC(=O)c1cccc(C=CC(=O)c2cc(OC)ccc2OC)c1	108 to 110 °C
O=C(O)[C@H](Cc1ccc(C(F)(F)F)cc1)[C@H](O)c1ccc(F)cc1 (racemic)	111 to 112 °C
CCCCCCCCCCCCCCCCCCS(=O)(=O)Nc1cc(C(=O)Nc2ccccc2)ccc1OC	154 to 156 °C

Structure (SMILES)	melting point
CCOC(=O)N1CCC2CN(c3c(F)cc4c(=O)c(C(=O)O)cn(C5CC5)c4c3F)CC21 (stereo unspecified)	191 to 192 °C
COC(=O)CC(CC(=O)OC)Sc1cc(OC)ccc1[N+](=O)[O-]	91 °C
CN(CC(=O)O)C(=O)CCc1cccc(-c2nc(=O)c3ccccc3s2)n1	194 to 195 °C
COCc1cc(C(O)CNCCCCCOCCc2ccc(F)cc2)ccc1O (stereo unspecified)	86 to 87 °C
COC(=O)COc1cccnc1Br	63 to 64 °C
Nc1cc(N2CCC(O)CC2)c(F)cc1[N+](=O)[O-]	238 to 239 °C
O=S(=O)(C1CC1)N1CCC(Nc2nccc(-c3c(-c4ccc(F)c(O)c4)nc4sccn34)n2)CC1	224 to 225 °C
CCCCCCCC(=O)OCCc1c(-c2ccccc2)nc(NC(C)=O)n2ncnc12	69 to 70 °C
NC(=O)c1cnccc1-c1ccccc1C(=O)N1Cc2ccccc2Cc2ccccc21	217 to 220 °C
CC(=O)N1CCN(C(=O)Cc2ccc(Cl)c(Cl)c2)C(CN2CCC(O)C2)C1 (stereo unspecified)	133 °C
CCC(=O)N(CC)c1cccc(-c2ccc(Cl)nn2)c1	118 to 119 °C
CCOC(=O)c1c(CBr)nc2cc(OC)c(OC)cc2c1-c1ccc(OC)c(OC)c1	135 to 136 °C
CCCCCCCCCCCCCCCCOC(=O)c1cccc(N)c1	52 to 53 °C
OCc1cn(-c2ccc(-c3ccccc3)cc2)cn1	173 to 177 °C
Cc1cc(F)ccc1-c1nc(-c2cn(N)c(=O)[nH]c2=O)nc2c1ccc(=O)n2-c1c(F)cccc1F	> 300 °C
CCOC(=O)N(CC)c1c(OC)cc(Cc2cnc(N)nc2N)cc1OC	165 to 167 °C
NC(=O)c1nnn(Cc2ccc(C(=O)c3ccc(Cl)cc3)c(Cl)c2)c1N	203 to 205 °C
CCN1c2ncccc2C(=O)N(C)c2ccc(OC)nc21	116 to 118 °C
CCCCNC(=O)COc1ccn2nc(-c3ccccc3)c(-c3ccc(=O)n(C(C)C)n3)c2c1	151 to 152 °C

The remaining lines, values ahead:

melting point	Structure (SMILES)
116 °C	CCCCCCCOc1c(C)cc2[nH]c(S(=O)Cc3ncc(C)c(OC)c3C)nc2c1C (stereo unspecified)
134 °C	COc1cccc(-c2nc(N)ncc2-c2ccc(=O)[nH]n2)c1
102 to 104 °C	C=C(c1ccc(Cl)cc1)c1ccc(NC(=O)OC(C)(C)C)c(C)c1
96 to 97 °C	CC(=O)OC(c1ccccc1)C1CNC1=O (stereo unspecified)
122 to 123 °C	Cc1ccc(-c2ncc(Cl)cc2-c2ccc(S(C)=O)cc2)cn1 (stereo unspecified)
96 to 97 °C	Cn1ncc2c1-c1c(Cc3ccccc3)sc(C(N)=O)c1CC2
185 to 195 °C	COc1cc(N2CCC(N3CCOCC3)CC2)ccc1-c1nc2c(N[C@H]3[C@@H](C(N)=O)[C@@H]4C=C[C@H]3C4)c(Br)cnc2[nH]1
152 °C	CC(C)n1cc(-c2ccccc2)c(=O)c(-c2ccccc2)c1
164 to 165 °C	COC(=O)[C@H]1[C@@H]2CC[C@@](NC(=O)OC(C)(C)C)(C(=O)O)[C@@H]21
> 300 °C	O=c1[nH]c(-c2ccccc2)nc(-c2ccncc2)c1Br
153 to 158 °C	CC(C)(COC(c1ccccc1)(c1ccccc1)c1ccccc1)C(=O)O
181 to 184 °C	O=C(O)Cc1ccc2c(c1)C(=O)Cc1cccnc1O2
205 °C	CCN=C1NC(=O)C(OC)(c2nsc3ccc(-n4c(=O)cc(C(F)(F)F)n(C)c4=O)cc23)N1 (stereo unspecified)
159 to 162 °C	CSc1nc(N)c(C=O)s1
133 to 134 °C	COCc1ccc(C(=O)O)c2ccccc12
> 250 °C	O=C1N(Cc2ncccc2C(F)(F)F)c2cccnc2C12COc1cc3c(cc12)OCCO3 (stereo unspecified)
94 to 95 °C	CCOC(=O)c1c2ccc(Cl)cc2c(-c2ccccc2)n1C1=CCC(=O)C=C1
216 to 219 °C	Cc1cc(C(=O)O)nc(-c2ccc([N+](=O)[O-])cc2)c1

melting point	Structure (SMILES)
153 to 157 °C	CC(C)c1ccc2c(c1)OC1(OC(=O)C(C)(C)C)c3ccccc3C(=O)C21OC(=O)C(C)(C)C (stereo unspecified)
84 to 89 °C	CCCCSC(=NC(C)=O)Nc1c(Cl)cccc1Cl
127 to 129 °C	CC1CCN=C2C(=O)c3cc(Br)ccc3N21 (stereo unspecified)
118 °C	CN(C(=O)c1nn(-c2ccc(Cl)cc2Cl)c(-c2ccc(Cl)cc2)c1O)N1CCCCC1
156 to 160 °C	OC(Cn1ccnc1)c1ccc2ccccc2c1 (stereo unspecified)
107 °C	CCOC(=O)C(=CC=C(SC)C(=O)c1ccc(Br)cc1)N(C)C
138 to 140 °C	CC(C)c1nc(C(c2ccccc2)c2ccccc2)cc(-c2ccc(F)cc2)c1CO
84 °C	CCOC(=O)C(=O)Nc1cc(Cl)c(Cl)c(Cl)c1[N+](=O)[O-]
96 to 97 °C	CONS(=O)(=O)c1ccc(C(F)(F)F)cc1
104 to 114 °C	N#Cc1ccc(Nc2cc(Cc3c(Cl)cccc3Cl)nc(NCCCN3CCCC3=O)n2)cc1
142 °C	COc1ccc2c(c1)CCC([C@@H]1CC[C@H](O)[C@@]1(C)CC(=O)O)C2 (stereo partly specified)
116 °C	Cc1cc(O)cc(C)c1-c1cccc2c1Oc1ccccc1S2
77.5 to 79 °C	CCc1cn(C(CC)C(=O)N(C)C)nc1-c1ccccc1 (stereo unspecified)
71 to 74 °C	O=C(NCc1ccc(Cl)cc1)c1cn2c(CO)cc3cc(CC4CCOCC4)cc(c1=O)c32
260 °C	CC(C)(C)OC(=O)Cn1cc(C[C@@H](N)C(=O)O)c2ccccc21
197 to 198 °C	CCCCCCN1CCN(Cc2ccc(NC(N)=S)cc2)C(=O)C1=O
95 to 97 °C	COC(=O)CCCCNC(=O)C(COS(C)(=O)=O)NS(=O)(=O)c1ccc(Cl)cc1 (racemic)

— a melting point compilation (Tetko et al.; mined from patent text by program, amines drawn as free bases though some values may be those of a salt)
